Assay results as given in patent US10357484B2, “Heterocyclic compound” (Takeda Pharmaceutical Company Limited, priority 2015, dated 2019).

Experiments:
Assay type in all cases: biochemical
[1] = molecular target: T1, HDAC1 enzyme (Homo sapiens, UniProt Q13547); experiment: HDAC1 enzyme inhibitory assay (HDAC-Glo I/II Assay kit); conditions: 1 μM test compound; wells without enzyme = 100% inhibition; read-out: HDAC1 inhibitory rate (%) (1 μM)
T1 construct: transducing full length HDAC1 and HDAC6 genes into Sf-9 insect cells; GST; purchased SignalChem; host or cells: Sf-9 insect cells
T1 sequence (Q13547 whole entry): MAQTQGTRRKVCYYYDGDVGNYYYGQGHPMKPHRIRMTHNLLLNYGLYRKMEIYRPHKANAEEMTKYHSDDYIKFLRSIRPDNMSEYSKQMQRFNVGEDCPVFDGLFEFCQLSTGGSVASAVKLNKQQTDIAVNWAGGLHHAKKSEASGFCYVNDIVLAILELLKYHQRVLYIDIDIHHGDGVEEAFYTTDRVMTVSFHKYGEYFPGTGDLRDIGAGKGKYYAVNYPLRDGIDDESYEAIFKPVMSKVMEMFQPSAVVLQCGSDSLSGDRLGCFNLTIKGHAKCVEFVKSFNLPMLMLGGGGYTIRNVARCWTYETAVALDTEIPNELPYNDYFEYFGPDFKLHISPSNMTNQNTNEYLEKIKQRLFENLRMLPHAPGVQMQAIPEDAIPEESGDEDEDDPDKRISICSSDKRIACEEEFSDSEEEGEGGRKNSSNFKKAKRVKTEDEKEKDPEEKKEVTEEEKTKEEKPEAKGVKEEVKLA
Description: (§1) HDAC1/6 Enzyme Inhibitory Assay
(§2) HDAC1 enzyme and HDAC6 enzyme each prepared by transducing full length HDAC1 and HDAC6 genes into Sf-9 insect cells and purifying by GST affinity column were purchased from SignalChem. Using these enzymes, HDAC1 and/or HDAC6 enzyme inhibitory activities of the compound of the present invention were evaluated. Enzymes were used after preserved at −70° C. HDAC1 or HDAC6 enzyme inhibitory activity of the compound of the present invention was measured using HDAC-Glo™ I/II Assay kit (Promega) according to the following experimental method. The test compound diluted with assay buffer (24 mM Tris-HCl (pH 7.5), 1 mM MgCl2, 0.35 mM KCl, 135 mM NaCl, 0.6 mM Glutathione, 0.01% Tween-20) was added to a 384-well plate by each 2 μL. Then, HDAC1 or HDAC6 enzyme solution diluted with assay buffer was added thereto by each 4 μL, and the plate was incubated at room temperature for 60 min. After incubated, HDAC substrate-Developer solution prepared according to Promega protocol attached to the assay kit was added to the 384-well plate by each 2 μL, and the enzyme reaction was started. After reacting at room temperature for 20 min, luminescence level was measured using plate reader Envision (PerkinElmer). The inhibitory activity of each compound was calculated as a relative activity value when luminescence level in wells without enzyme is considered as 100% inhibition.

[2] = molecular target: T2, HDAC6 enzyme (Homo sapiens, UniProt Q9UBN7); experiment: HDAC6 enzyme inhibitory assay (HDAC-Glo I/II Assay kit); conditions: 1 μM test compound; wells without enzyme = 100% inhibition; read-out: HDAC6 inhibitory rate (%) (1 μM)
T2 construct: transducing full length HDAC1 and HDAC6 genes into Sf-9 insect cells; GST; purchased SignalChem; host or cells: Sf-9 insect cells
T2 sequence (Q9UBN7 1-1215): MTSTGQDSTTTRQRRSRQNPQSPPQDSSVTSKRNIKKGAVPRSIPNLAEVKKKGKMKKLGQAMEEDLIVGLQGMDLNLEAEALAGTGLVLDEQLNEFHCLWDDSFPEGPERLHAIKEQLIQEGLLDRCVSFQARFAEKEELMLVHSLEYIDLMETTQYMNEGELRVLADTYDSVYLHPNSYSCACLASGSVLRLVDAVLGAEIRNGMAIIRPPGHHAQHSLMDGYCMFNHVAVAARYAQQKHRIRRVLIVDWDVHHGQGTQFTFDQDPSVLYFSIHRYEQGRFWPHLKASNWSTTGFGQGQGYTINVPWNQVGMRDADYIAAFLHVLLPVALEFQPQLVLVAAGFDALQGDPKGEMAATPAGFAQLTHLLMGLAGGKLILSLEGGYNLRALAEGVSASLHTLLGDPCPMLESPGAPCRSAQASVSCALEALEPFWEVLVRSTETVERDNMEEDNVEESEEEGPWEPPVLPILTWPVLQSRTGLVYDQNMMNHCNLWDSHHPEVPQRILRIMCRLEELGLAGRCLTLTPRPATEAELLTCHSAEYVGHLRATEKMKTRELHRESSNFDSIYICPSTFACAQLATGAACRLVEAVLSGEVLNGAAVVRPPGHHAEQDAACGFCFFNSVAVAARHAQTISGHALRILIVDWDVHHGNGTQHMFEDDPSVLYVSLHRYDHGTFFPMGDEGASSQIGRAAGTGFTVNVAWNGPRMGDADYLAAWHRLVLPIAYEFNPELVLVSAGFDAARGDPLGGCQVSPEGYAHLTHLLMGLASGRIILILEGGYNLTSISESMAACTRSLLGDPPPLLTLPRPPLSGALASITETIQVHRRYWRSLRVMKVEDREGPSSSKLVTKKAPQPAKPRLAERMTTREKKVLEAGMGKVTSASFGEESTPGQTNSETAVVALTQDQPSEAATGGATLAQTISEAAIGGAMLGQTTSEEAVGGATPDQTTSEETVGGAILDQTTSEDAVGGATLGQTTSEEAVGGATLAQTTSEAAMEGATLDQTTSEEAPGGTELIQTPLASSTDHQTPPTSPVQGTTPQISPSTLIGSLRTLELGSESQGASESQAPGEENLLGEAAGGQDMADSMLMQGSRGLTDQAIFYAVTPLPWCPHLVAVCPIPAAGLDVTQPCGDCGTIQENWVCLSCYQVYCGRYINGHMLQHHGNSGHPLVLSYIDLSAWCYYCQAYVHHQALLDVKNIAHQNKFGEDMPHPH
Description: as §1, §2

[3] = molecular target: T3, HDAC9 enzyme (Homo sapiens, UniProt Q9UKV0); experiment: HDAC9 enzyme inhibitory assay (HDAC-Glo class IIa); conditions: 1 μM test compound; wells without enzyme = 100% inhibition; read-out: HDAC9 inhibitory rate (%) (1 μM)
T3 construct: transducing full length HDAC9 gene into Sf-9 insect cells; made in house; host or cells: Sf-9 insect cells
T3 sequence (Q9UKV0 whole entry, species assumed): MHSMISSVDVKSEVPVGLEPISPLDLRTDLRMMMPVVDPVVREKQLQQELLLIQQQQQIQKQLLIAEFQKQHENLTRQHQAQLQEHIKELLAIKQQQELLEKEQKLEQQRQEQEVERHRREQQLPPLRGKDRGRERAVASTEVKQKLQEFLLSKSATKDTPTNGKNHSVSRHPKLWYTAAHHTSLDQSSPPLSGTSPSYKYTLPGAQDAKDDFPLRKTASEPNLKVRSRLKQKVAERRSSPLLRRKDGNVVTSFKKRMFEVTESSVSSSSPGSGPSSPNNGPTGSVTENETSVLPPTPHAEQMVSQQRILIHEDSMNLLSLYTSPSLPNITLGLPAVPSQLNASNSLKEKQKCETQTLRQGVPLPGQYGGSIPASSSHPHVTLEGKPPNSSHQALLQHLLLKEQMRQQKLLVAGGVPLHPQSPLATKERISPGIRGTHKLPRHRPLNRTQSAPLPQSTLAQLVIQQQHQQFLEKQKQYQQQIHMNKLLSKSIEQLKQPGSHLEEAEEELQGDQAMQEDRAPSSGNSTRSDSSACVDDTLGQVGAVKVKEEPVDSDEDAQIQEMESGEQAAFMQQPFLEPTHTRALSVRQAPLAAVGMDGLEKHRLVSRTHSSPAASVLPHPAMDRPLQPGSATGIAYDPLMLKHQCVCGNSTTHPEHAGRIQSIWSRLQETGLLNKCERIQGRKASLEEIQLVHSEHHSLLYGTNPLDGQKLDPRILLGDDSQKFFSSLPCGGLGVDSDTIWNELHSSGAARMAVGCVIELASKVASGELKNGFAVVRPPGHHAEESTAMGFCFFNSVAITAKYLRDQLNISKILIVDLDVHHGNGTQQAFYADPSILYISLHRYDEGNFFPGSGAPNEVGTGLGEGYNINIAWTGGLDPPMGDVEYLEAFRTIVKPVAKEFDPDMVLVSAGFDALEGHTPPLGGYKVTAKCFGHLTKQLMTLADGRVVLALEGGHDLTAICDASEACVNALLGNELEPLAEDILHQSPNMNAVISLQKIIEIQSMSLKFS
Description: HDAC9 Enzyme Inhibitory Assay
Enzyme was prepared by transducing full length HDAC9 gene into Sf-9 insect cells and purifying by Ni-NTA affinity column, and HDAC9 enzyme inhibitory activity was evaluated. Enzymes were used after preserved at −70° C. HDAC9 enzyme inhibitory activity of the test compound was measured using HDAC-Glo class IIa (Promega) according to the following experimental method. The test compound diluted with assay buffer (24 mM Tris-HCl (pH 7.5), 1 mM MgCl2, 0.35 mM KCl, 135 mM NaCl, 0.6 mM Glutathione, 0.01% Tween-20) was added to a 384-well plate by each 2 μL. Then, HDAC9 enzyme solution diluted with assay buffer was added thereto by each 2 μL, and the plate was incubated at room temperature for 60 min. After incubated, HDAC substrate-Developer solution prepared according to Promega protocol was added to the 384-well plate by each 4 μL, and the enzyme reaction was started. After reacting at room temperature for 20 min, luminescence level was measured using plate reader Envision (PerkinElmer). The inhibitory activity of each compound was calculated as a relative activity value when luminescence level in wells without enzyme is considered as 100% inhibition.

For O=C1c2cc(-c3noc(C(F)(F)F)n3)cnc2CN1Cc1ccccc1 [Example 1, 6-benzyl-3-(5-(trifluoromethyl)-1,2,4-oxadiazol-3-yl)-6,7-dihydro-5H-pyrrolo[3,4-b]pyridin-5-one], the inhibition at 1 µM [1] was 61%, the inhibition at 1 µM [2] was 101% and the inhibition at 1 µM [3] was 94%.

CC(c1ccccc1)N1Cc2ncc(-c3noc(C(F)(F)F)n3)cc2C1=O (stereo not drawn) [Example 2, 6-(1-phenylethyl)-3-(5-(trifluoromethyl)-1,2,4-oxadiazol-3-yl)-6,7-dihydro-5H-pyrrolo[3,4-b]pyridin-5-one] was tested, and the inhibition at 1 µM [1] was 57%, the inhibition at 1 µM [2] was 100% and the inhibition at 1 µM [3] was 92%.

In the case of CC(C)(c1ccccc1)N1Cc2ncc(-c3noc(C(F)(F)F)n3)cc2C1=O [Example 3, 6-(2-phenylpropan-2-yl)-3-(5-(trifluoromethyl)-1,2,4-oxadiazol-3-yl)-6,7-dihydro-5H-pyrrolo[3,4-b]pyridin-5-one], the inhibition at 1 µM [1] is reported as 36%, the inhibition at 1 µM [2] is reported as 98% and the inhibition at 1 µM [3] is reported as 89%.

Compound O=C1c2cc(-c3noc(C(F)(F)F)n3)cnc2CN1Cc1cccnc1 [Example 4, 6-(pyridin-3-ylmethyl)-3-(5-(trifluoromethyl)-1,2,4-oxadiazol-3-yl)-6,7-dihydro-5H-pyrrolo[3,4-b]pyridin-5-one] has an inhibition at 1 µM [1] of 43%, an inhibition at 1 µM [2] of 93% and an inhibition at 1 µM [3] of 93%.

CC(c1cccnc1)N1Cc2ncc(-c3noc(C(F)(F)F)n3)cc2C1=O (stereo not drawn) [Example 5, 6-(1-(pyridin-3-yl)ethyl)-3-(5-(trifluoromethyl)-1,2,4-oxadiazol-3-yl)-6,7-dihydro-5H-pyrrolo[3,4-b]pyridin-5-one] gave an inhibition at 1 µM [1] of 43%, an inhibition at 1 µM [2] of 97% and an inhibition at 1 µM [3] of 93%.

O=C1c2cc(-c3noc(C(F)(F)F)n3)ccc2CN1Cc1ccccc1 [Example 6, 2-benzyl-6-(5-(trifluoromethyl)-1,2,4-oxadiazol-3-yl)isoindolin-1-one] showed an inhibition at 1 µM [1] of 24%, an inhibition at 1 µM [2] of 102% and an inhibition at 1 µM [3] of 82%.

Compound C[C@H](c1ccccc1)N1Cc2ccc(-c3noc(C(F)(F)F)n3)cc2C1=O [Example 7, 2-((1R)-1-phenylethyl)-6-(5-(trifluoromethyl)-1,2,4-oxadiazol-3-yl)isoindolin-1-one] has an inhibition at 1 µM [1] of 17%, an inhibition at 1 µM [2] of 95% and an inhibition at 1 µM [3] of 78%.

In the case of C[C@@H](c1ccccc1)N1Cc2ccc(-c3noc(C(F)(F)F)n3)cc2C1=O [Example 8, 2-((1S)-1-phenylethyl)-6-(5-(trifluoromethyl)-1,2,4-oxadiazol-3-yl)isoindolin-1-one], the inhibition at 1 µM [1] is reported as 19%, the inhibition at 1 µM [2] is reported as 99% and the inhibition at 1 µM [3] is reported as 87%.

For COc1cccc(CN2Cc3ccc(-c4noc(C(F)(F)F)n4)cc3C2=O)c1 [Example 9, 2-(3-methoxybenzyl)-6-(5-(trifluoromethyl)-1,2,4-oxadiazol-3-yl)isoindolin-1-one], the inhibition at 1 µM [1] was 31%, the inhibition at 1 µM [2] was 98% and the inhibition at 1 µM [3] was 81%.

Work on O=C1c2cc(-c3noc(C(F)(F)F)n3)ccc2CN1Cc1cccc(Oc2ccccc2)c1 [Example 10, 2-(3-phenoxybenzyl)-6-(5-(trifluoromethyl)-1,2,4-oxadiazol-3-yl)isoindolin-1-one] yielded an inhibition at 1 µM [1] of 15%, an inhibition at 1 µM [2] of 28% and an inhibition at 1 µM [3] of 52%.

O=C1c2cc(-c3noc(C(F)(F)F)n3)ccc2CN1Cc1ccccc1Oc1ccccc1 [Example 11, 2-(2-phenoxybenzyl)-6-(5-(trifluoromethyl)-1,2,4-oxadiazol-3-yl)isoindolin-1-one] gave an inhibition at 1 µM [1] of 4%, an inhibition at 1 µM [2] of 68% and an inhibition at 1 µM [3] of 5%.

Work on COc1ccccc1CN1Cc2ccc(-c3noc(C(F)(F)F)n3)cc2C1=O [Example 12, 2-(2-methoxybenzyl)-6-(5-(trifluoromethyl)-1,2,4-oxadiazol-3-yl)isoindolin-1-one] yielded an inhibition at 1 µM [1] of 23%, an inhibition at 1 µM [2] of 96% and an inhibition at 1 µM [3] of 76%.

For C[C@@H](c1ccc(F)cc1)N1Cc2ccc(-c3noc(C(F)(F)F)n3)cc2C1=O [Example 13, 2-((1S)-1-(4-fluorophenyl)ethyl)-6-(5-(trifluoromethyl)-1,2,4-oxadiazol-3-yl)isoindolin-1-one], the inhibition at 1 µM [1] was 14%, the inhibition at 1 µM [2] was 90% and the inhibition at 1 µM [3] was 79%.

Work on C[C@@H](c1ccc(Cl)cc1)N1Cc2ccc(-c3noc(C(F)(F)F)n3)cc2C1=O [Example 14, 2-((1S)-1-(4-chlorophenyl)ethyl)-6-(5-(trifluoromethyl)-1,2,4-oxadiazol-3-yl)isoindolin-1-one] yielded an inhibition at 1 µM [1] of 9%, an inhibition at 1 µM [2] of 88% and an inhibition at 1 µM [3] of 76%.

C[C@@H](c1ccccc1F)N1Cc2ccc(-c3noc(C(F)(F)F)n3)cc2C1=O [Example 15, 2-((1S)-1-(2-fluorophenyl)ethyl)-6-(5-(trifluoromethy)-1,2,4-oxadiazol-3-yl)isoindolin-1-one] showed an inhibition at 1 µM [1] of 15%, an inhibition at 1 µM [2] of 95% and an inhibition at 1 µM [3] of 79%.

C[C@@H](c1cccc(F)c1)N1Cc2ccc(-c3noc(C(F)(F)F)n3)cc2C1=O [Example 16, 2-((1S)-1-(3-fluorophenyl)ethyl)-6-(5-(trifluoromethyl)-1,2,4-oxadiazol-3-yl)isoindolin-1-one] showed an inhibition at 1 µM [1] of 20%, an inhibition at 1 µM [2] of 95% and an inhibition at 1 µM [3] of 85%.

In the case of C[C@@H](c1ccc(F)cc1F)N1Cc2ccc(-c3noc(C(F)(F)F)n3)cc2C1=O [Example 17, 2-((1S)-1-(2,4-difluorophenyl)ethyl)-6-(5-(trifluoromethyl)-1,2,4-oxadiazol-3-yl)isoindolin-1-one], the inhibition at 1 µM [1] is reported as 12%, the inhibition at 1 µM [2] is reported as 95% and the inhibition at 1 µM [3] is reported as 74%.

In the case of COc1ccc([C@H](C)N2Cc3ccc(-c4noc(C(F)(F)F)n4)cc3C2=O)cc1 [Example 18, 2-((1S)-1-(4-methoxyphenyl)ethyl)-6-(5-(trifluoromethyl)-1,2,4-oxadiazol-3-yl)isoindolin-1-one], the inhibition at 1 µM [1] is reported as 27%, the inhibition at 1 µM [2] is reported as 91% and the inhibition at 1 µM [3] is reported as 89%.

Compound COc1cccc([C@H](C)N2Cc3ccc(-c4noc(C(F)(F)F)n4)cc3C2=O)c1 [Example 19, 2-((1S)-1-(3-methoxyphenyl)ethyl)-6-(5-(trifluoromethyl)-1,2,4-oxadiazol-3-yl)isoindolin-1-one] has an inhibition at 1 µM [1] of 29%, an inhibition at 1 µM [2] of 99% and an inhibition at 1 µM [3] of 87%.
